Laboratory results as given in article PMC6686156, “Discovery of Sustainable Drugs for Neglected Tropical Diseases: Cashew Nut Shell Liquid (CNSL)‐Based Hybrids Target Mitochondrial Function and ATP Production in Trypanosoma brucei” (Chemmedchem, 2019).

Experiments:
[1] = tested on: T. b. brucei 427WT bloodstream trypomastigotes; experiment: Transmission electron microscopy on T. b. brucei; format: cell-based, Trypanosoma brucei brucei; conditions: 1×EC50; 4 h exposure
Description: Transmission electron microscopy assay on T. b. brucei and HFF cells: TEM of bloodstream trypomastigotes (427WT) and of HFF was performed essentially as previously described.52 Briefly, cell cultures were adjusted to 2.5×10^6 cells mL^−1 and incubated in the presence or absence of test compounds at EC50. Cells were fixed overnight at 4 °C in 2.5 % glutaraldehyde and 4 % paraformaldehyde in 0.1 M phosphate buffer (pH 7.4). Samples were washed with 0.1 M phosphate buffer (pH 7.4), post‐fixed in 1 % osmium tetroxide for 1 h on ice, and washed with the phosphate buffer. Cells were next incubated in 0.5 % uranyl acetate solution for 30 min, washed with distilled water and dehydrated in increasing concentrations of acetone (30, 50, 70, 90 and 100 %).

[2] = tested on: T. b. brucei 427WT bloodstream trypomastigotes; experiment: ATP assay on T. b. brucei (luciferin-luciferase); format: cell-based, Trypanosoma brucei brucei; conditions: approximately 0.5×EC50; after 4–6 h
Description: ATP assay on T. b. brucei and HFF cells: Changes in cellular ATP levels due to the exposure of trypanosomes to the test compounds (0.5×EC50) were monitored using the Molecular Probes ATP Determination Kit (A22066, Invitrogen Detection Technologies), based on the luciferin–luciferase bioluminescent enzymatic reaction. Bloodstream trypomastigote cultures of T. brucei s427WT were incubated with and without test compound, and, at each predetermined incubation time, 10^7 cells of each sample were transferred into a microfuge tube and centrifuged at 2000×g for 10 min at 4 °C. The pellet was washed twice with 1 mL of 50 mM Tris⋅HCl (pH 7.4) containing 0.1 mM DTT, and then resuspended in 200 μL of the same buffer. The cells were lysed by sonication on ice (twice for 10 s separated by 30 s), using a Soniprep 150 (MSE) at 8 μm amplitude. The samples were centrifuged at 10 000×g for 10 min at 4 °C and the supernatant was collected, instantly frozen in liquid nitrogen, and stored at −80 °C. Oligomycin (2.0 μg mL^−1) was used as positive control. ATP levels were quantified using the contents of the kit following the manufacturer's instructions; 90 μL of standard reaction solution was added to each well of a 96‐well plate and the background luminescence was recorded in a FLUOstar OPTIMA fluorimeter; 10 μL of each sample was then added to each well. The plate was incubated at 28 °C for 15 min and the luminescence was measured, including a standard curve with an ATP concentration ranging from 1 nM to 1 μM to allow the calculation of the ATP concentrations in each sample. The ATP content was measured at 0, 0.5, 1, 2, 4, 8 and 12 h of incubation with test sample.

[3] = tested on: T. b. brucei ISMR1; experiment: In vitro drug susceptibility assay (resazurin), dyskinetoplastic ISMR1 strain; format: cell-based, Trypanosoma brucei brucei; conditions: isometamidium-resistant line
Description: (§1) Organisms and culture media: Only bloodstream trypomastigotes of T. b. brucei were used throughout this study. […] Parasites were cultured in vented flasks at 37 °C and 5 % CO2 atmosphere and they were passaged every 3 days. Bloodstream forms of T. congolense savannah‐type strain IL3000 were cultured in basal MEM medium, supplemented by 10 % fresh goat serum, 14 μL of β‐mercaptoethanol, 800 μL of 200 mM glutamine solution, and 10 mL of penicillin/streptomycin solution per liter of medium (pH 7.3).48 T. congolense were cultured in six‐well plates at 34 °C and 5 % CO2.
(§2) In brief, the assays were performed in 96‐well plates with 2×10^5 cells per well for T. b. brucei or 5×10^5 cells per well for T. congolense, in their respective culture media. First, 200 μL of test compounds’ solutions (400 μM, in T. brucei or T. congolense medium as appropriate) was added to the first well of each 12‐well row, from which doubling dilutions were conducted over one row per test compound. […] Fluorescence was detected using a FLUOstar Optima (BMG Labtech, Durham, NC, USA) at wavelength of 540 nm (excitation), 590 nm (emission). EC50 values were calculated by nonlinear regression using an equation for a sigmoidal dose–response curve with variable slope using Prism 5.0 (GraphPad Software Inc., San Diego, CA, USA).

[4] = tested on: T. b. brucei 427WT trypomastigotes; experiment: Reactive oxygen species (ROS) assay (DCFH-DH); format: cell-based, Trypanosoma brucei brucei; conditions: incubation up to 2 h, multiples of EC50
Description: Reactive oxygen species (ROS) assay on T. b. brucei: The production of ROS when T. b. brucei 427WT trypomastigotes incubated with different concentration (2.5×EC50; 1.25×EC50; 0.3×EC50) of test compound was assessed using the indicator dye 2,7‐dichlorodihydrofluorescein diacetate (DCFH‐DH; Sigma–Aldrich). This assay was performed in a 96‐well black‐bottomed well plate; 200 μL of each test compound solution, at 5×EC50 in assay buffer pH 7.3, was added to the well in the first column of the plate and doubling dilutions were carried out across the row, after which 3×10^6 cell in 100 μL of assay buffer were added to each well, immediately followed by 2 μL of 1 mM DCFH‐DH, under minimal light conditions. The plates were incubated in a FLUOstar OPTIMA fluorimeter at 37 °C 5 % CO2 and the fluorescence was monitored at 485 nm for the excitation, 520 nm for the emission for 3 h, taking readings of each well every 2 min. Three wells were included in the plate as controls: 1) 3×10^6 cells per well in assay buffer without test compound; 2) 3×10^6 cells per well in assay buffer with 2 μL of 10 mM H2O2; 3) assay buffer without cells and test compound.

[5] = tested on: T. b. brucei 427WT trypomastigotes; experiment: Growth curve / time-to-kill determination; format: cell-based, Trypanosoma brucei brucei; conditions: 1× EC50; over 48 h
Description: To determine whether 18–22 inhibited growth or cell division rather than causing cell death of T. b. brucei, cell growth curves were performed by treating 427WT trypomastigotes with concentrations corresponding to 0.5×, 1×, and 2× the EC50 value, using untreated cells as a control. Incubation with test compounds at half the EC50 (Figure 3 A) caused mostly some delayed growth phenotype, with rates increasing after 10 or 20 h. […] At double the concentration (Figure 3 C), all the hybrids cleared the culture between the 4 h and 8 h time points, with the cell populations rapidly declining between 2 and 4 h.
Untreated parasites, used as control, were grown in parallel. The cells were counted by using hemocytometer cell counter (cell count/mL×10^4) at 0, 2, 4, 8, 12, 24, 28, 32, 36, 48 h of incubation. Each experiment was performed as two independent replicates, and each sample was counted at least twice.

[6] = target: T. brucei GAPDH (Trypanosoma brucei brucei, UniProt P22512); experiment: Inhibition of T. brucei GAPDH; format: biochemical; conditions: fixed concentration of 10 μM; data not shown; read-out: decrease of GAPDH activity
Description: […]. […] Limitations of solubility prevented us from testing the series at higher concentrations. However, it must be noted that we cannot exclude the possibility of a low‐affinity inhibition of GAPDH contributing to the trypanocidal effect, as compounds may accumulate to relatively high concentrations within the parasite.

[7] = tested on: T. congolense IL3000 WT; experiment: In vitro drug susceptibility assay (resazurin), T. congolense; format: cell-based; conditions: Trypanosoma congolense, bloodstream forms, read-out: EC50 T. c. IL3000 WT
Description: as §1, §2

Chain of T. brucei GAPDH (P22512 whole entry): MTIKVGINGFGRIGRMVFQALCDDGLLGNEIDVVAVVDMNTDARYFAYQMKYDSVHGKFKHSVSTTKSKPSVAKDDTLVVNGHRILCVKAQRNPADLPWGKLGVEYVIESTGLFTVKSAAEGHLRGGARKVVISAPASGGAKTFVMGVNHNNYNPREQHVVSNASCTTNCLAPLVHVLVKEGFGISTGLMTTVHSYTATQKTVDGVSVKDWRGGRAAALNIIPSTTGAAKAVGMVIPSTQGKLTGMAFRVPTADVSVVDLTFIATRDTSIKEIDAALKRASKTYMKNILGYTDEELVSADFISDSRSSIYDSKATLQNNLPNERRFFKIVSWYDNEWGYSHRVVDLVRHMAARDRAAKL

Compound | ultrastructure by TEM in trypanosomes [1] | ATP content, % of untreated [ATP] [2] | EC50 in ISMR1 relative to 427WT tested in parallel [3] | ROS production [4] | effect on cell growth [5] | inhibition at 10 µM [6] | EC50 [7]
COc1cccc2c1C(=O)C=C(Oc1cccc(CCCCCCCCO)c1)C2=O [Compound 20, 2‐(3‐(8‐Hydroxyoctyl)phenoxy)‐5‐methoxynaphthalene‐1,4‐dione] | some mitochondria presented an irregular shape | approximately 50% | did not show a significant increase in the EC50 values | dose‐dependently increased | decreased the growth rate substantially, with a nearly trypanostatic effect over the first 12 h | < 15% | 18.8 ± 0.2 µM
O=C1C(Oc2cccc(CCCCCCCCO)c2)=CC(=O)c2c(O)cccc21 [Compound 22, 5‐Hydroxy‐2‐(3‐(8‐hydroxyoctyl)phenoxy)naphthalene‐1,4‐dione] | mitochondrial damage but no other ultrastructural changes | approximately 50% | did not show a significant increase in the EC50 values | dose‐dependently increased | killed only a proportion of the cell population before stabilizing | < 15% | 43.4 ± 0.2 µM
